Experimental data published in US10596145B2, “Heterocyclic flavone derivatives, compositions, and methods related thereto” (Emory University, priority 2012, dated 2020).
“Also recorded” adds a separate entry of the source.

Columns and labels:
[1] = In vivo pharmacokinetic studies in mice; parameters: species or system mouse; conditions: in vivo
Procedure: For compound a, the standard dosage of 1 mg/kg via i.v. injection and 5 mg/kg for P.O. route was employed. […] Presumably, the dosage is too low for the in vivo PK assay. Thus, the doses of the tested compound o were increased. […] Moreover, the bioavailability is around 2% for compound o at a 10 mg/kg dosage.
Twenty to thirty grams mice within the age of 6-8 weeks old were administrated with the indicated compounds i. v. or orally. At different time points (3, 10, 30, 60, 120, 240, 360 and 480 min), blood aliquots (300-400 μl) were collected in tubes coated with lithium heparin, mixed gently, then kept on ice and centrifuged at 2500×g for 15 min at 4° C., within 1 h of collection. The plasma was then harvested and kept frozen at −20° C. until further processing. For each time point, 3 mice/group were employed. The plasma samples were analyzed by HPLC.

C57BL/6J mice = assay: Locomotor activity assay; format: in vivo, mouse; conditions: 2.5 mg/kg oral, 3 weeks
Procedure: The above drug-treated mice were subjected locomotor activity at day 22. […] Data are presented as mean±SEM.
Locomotor activity was assessed using an automated system (San Diego Instruments, La Jolla, Calif., USA) with photobeams that recorded ambulations (consecutive beam breaks). Drug-treated mice were placed in the locomotor chambers, and their activity was recorded for 2 h with 30 min interval.

TrkB = target: T1, TrkB (Mus musculus, UniProt P15209); assay: TrkB phosphorylation in mouse brain after oral administration (immunoblotting, immunohistochemistry); format: in vivo
T1 construct: from tissue; host or cells: mouse brain (hippocampus, cortex), C57BL/6
T1 sequence (P15209 32-821): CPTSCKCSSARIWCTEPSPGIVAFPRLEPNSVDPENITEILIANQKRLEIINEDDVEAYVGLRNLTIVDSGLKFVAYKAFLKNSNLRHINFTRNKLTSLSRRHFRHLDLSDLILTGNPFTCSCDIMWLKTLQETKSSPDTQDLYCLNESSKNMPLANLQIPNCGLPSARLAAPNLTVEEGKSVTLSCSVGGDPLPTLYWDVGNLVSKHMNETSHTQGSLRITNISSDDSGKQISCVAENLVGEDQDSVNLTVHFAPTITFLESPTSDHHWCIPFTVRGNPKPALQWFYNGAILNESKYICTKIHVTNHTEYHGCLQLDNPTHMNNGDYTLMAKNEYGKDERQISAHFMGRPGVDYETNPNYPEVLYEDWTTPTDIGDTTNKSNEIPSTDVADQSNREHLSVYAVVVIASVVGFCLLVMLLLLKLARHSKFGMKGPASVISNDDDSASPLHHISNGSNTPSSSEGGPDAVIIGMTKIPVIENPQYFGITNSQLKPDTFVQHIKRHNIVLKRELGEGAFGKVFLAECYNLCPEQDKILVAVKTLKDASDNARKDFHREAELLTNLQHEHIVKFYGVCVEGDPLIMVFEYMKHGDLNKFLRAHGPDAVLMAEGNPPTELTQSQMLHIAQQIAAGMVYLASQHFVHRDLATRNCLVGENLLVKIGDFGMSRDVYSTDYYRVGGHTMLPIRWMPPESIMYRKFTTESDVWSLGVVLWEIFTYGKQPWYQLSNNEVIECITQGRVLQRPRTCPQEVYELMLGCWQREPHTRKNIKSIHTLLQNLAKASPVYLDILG
Procedure: One mg/kg of various indicated compounds were orally administrated into C57 BL/6J mice and TrkB phosphorylation and its downstream signaling cascades including Akt and MAPK in the hippocampus of mouse brain were analyzed by immunoblotting at 4 h. […] The downstream p-Akt and p-MAPK activity coupled to the TrkB activation patterns.
Time course assay with 4′-dimethylamino-7,8-imidazole flavone. One mg/kg of compound (i) and compound (m) were orally administrated into C57 BL/6J mice and TrkB phosphorylation and its downstream signaling cascades including Akt in mouse brain were analyzed by immunoblotting at various time points. TrkB activation by compound m peaked at 4 h, whereas the maximal TrkB activation by compound i in mouse brain occurred at 1-2 h. Arrows indicate the p-TrkB in mature glycosylated or unglycosylated forms (top panels). The downstream Akt activation pattern tightly correlated with the upstream TrkB activation.
Male C57BL/6 mice aged of two months were administrated orally with 4′-DMA-7,8-DHF derivatives at a single dose of 1 mg/kg for 4 h. The control mice were injected with saline. The mice were sacrificed and brains were homogenated and ultracentrafuged. The supernatant (40 μg) was employed for SDS-PAGE and immunoblotting analysis with indicated antibodies, respectively. Male C57BL/6 mice aged of two months were administrated orally with compound (i) or (m) at the dose of 5 mg/kg/day each and compound o or p at the dose of 2.5 mg/kg/day each for 21 days. BrdU (100 mg/kg) was i. p. injected two hours before the TrkB agonist treated animals were sacrificed and the hippocampal section lysates were analyzed by immunoblotting with p-TrkB and total TrkB antibodies, p-AKT ELISA.
Brain tissues were fixed in 4% paraformaldehyde overnight followed by paraffin embedding. Sections of 6 μm were cut. For immunohistochemical staining, brain sections were deparaffinized in xylene and rehydrated in graded alcohols. Endogenous peroxidase activity was blocked by 3% hydrogen peroxide for 5 min and all slides were boiled in 10 mM sodium citrate buffer (pH 6.0) for 10 min. Phosphorylated TrkB 816 and TrkB were detected using specific antibodies. Paraffin section were deparaffinized in xylene and rehydrated gradient ethanol solution. Samples were boiled in 10 mM sodium citrate buffer for 20 min for antigen retrieval purpose. Brain sections were incubated with anti-TrkB (BD Biosciences, San Jose, Calif.) 1:50, p-TrkB 1:300 dilution. Secondary antibody was applied using anti-rabbit-Alexa 594 (red), anti-mouse-fluorescein isothiocyanate (FITC) (green). DAPI (blue) was used for nuclear staining.

Cc1nc2ccc3c(=O)cc(-c4ccc(N5CCCC5)cc4)oc3c2[nH]1 [compound o, 2-methyl-8-(4-(pyrrolidin-1-yl)phenyl)chromeno[7,8-d]imidazol-6(1H)-one]
half-life ([1]; C57BL/6, mouse, 3 mg/kg): ~1.72 h
oral bioavailability ([1]; C57BL/6, mouse, po, 10 mg/kg): 2%
AUC(0-t) ([1]; mouse, 3 mg/kg): ~0.312 µg·h/mL
bioavailability ([1]; mouse, po, 10 mg/kg): ~2%
locomotor activity (C57BL/6J mice): neither compound o nor p altered the motion activity
TrkB activation in mouse brain (TrkB; 1 mg/kg oral, hippocampus, at 2 h): triggers TrkB activation in mouse brain
TrkB phosphorylation after chronic treatment (immunoblotting) (TrkB; 2.5 mg/kg/day oral, 21 days): markedly activated TrkB receptor; also recorded: evidently elevated TrkB phosphorylation
TrkB phosphorylation in hippocampus (immunohistochemistry, anti-p-TrkB 816) (TrkB; 2.5 mg/kg/day oral, chronic): elevated TrkB phosphorylation in hippocampus
